Data published in patent US20080131920A1, “Ion flux in biological processes, and methods related thereto” (priority 2005, published 2008).

Assays:
[1] = system: H+ flux from living early blastomeres; assay: Self-referencing ion-selective (Seris) probe measurement of H+ flux; set-up: species or system Xenopus laevis; conditions: in vivo
Excerpt: We examined ion flux using a self-referencing ion probe to measure H^+ flux from living early blastomeres. The H^+-V-ATPase endogenously acts to pump protons out of the cell (e.g., it mediates proton efflux). We note, however, that other ion transporters modulate influx of ions. The term ion flux refers to movement of ions across membranes, regardless of the direction. The techniques provided herein can be used to evaluate changes in either ion efflux or influx, and thus can generally be used to evaluate ion flux and changes in ion flux following manipulation of an ion transporter protein or a class of ion transporter proteins.
To confirm that the asymmetric efflux was due to asymmetric H^+-V-ATPase function, we compared H^+ efflux in control embryos to efflux from embryos treated with a variety of ion flux inhibitors.
The self-referencing ion-selective (Seris) probe consists of an ion selective microelectrode that is translated between two points in the extracellular space near the plasma membrane of a cell. If a net flux of ion into or out of the cell is detected, the resultant concentration gradient will be detected as a voltage difference from which the ion flux through the membrane can be calculated. […]. […]

[2] = system: Sonic hedgehog (Shh), Nodal; assay: Sidedness of Shh and Nodal expression in chick embryos (in ovo culture, in situ hybridization); conditions: in vivo
Excerpt: We examined the effect of inhibiting H^+-V-ATPase activity on the expression of the early left-sided marker Sonic hedgehog (Shh). Inhibition of H^+-V-ATPase activity following treatment with concanamycin or DCCD specifically randomized the expression of Shh, as well as that of and the downstream marker Nodal. Compared to controls, in which these two markers are always left-sided, concanamycin induced aberrant sidedness of Shh expression in 67% and Nodal in 24% of embryos. Thus, as in Xenopus, H^+-V-ATPase is upstream of the known asymmetric gene cascade, and is required for normal LR patterning in chicks.
To perform a pharmacological screen on chick embryos with minimal disturbance to normal morphogenesis, we optimized a chicken in ovo culture system. A small hole was made on the top of each egg (prior to incubation), and 5 ml of light albumin was removed. […]. Eggs were securely wrapped with Scotch tape, incubated at 37.5° C. to the desired stages, then fixed for analysis of laterality markers by in situ hybridization.
Whole mount in situ hybridization (WISH) on Xenopus was performed according to standard methods. DNA used to transcribe in situ hybridization probes were XNr-1 (Lohr et al., 1998, Developmental Genetics 23: 194-202; Lowe et al., 1996, Nature 381: 158-161); cShh (Levin et al., 1995, Cell 82: 803-814); cNodal (Levin et al., 1995, Cell 82: 803-814).

KCNK1 = KCNK1 expression in the regeneration bud; set-up: species or system Xenopus laevis; conditions: in vivo
Excerpt: We then sought to functionally link V-ATPase activity to gene expression in the regeneration bud. Existing markers include Notch pathway genes^2. […] Because of this, and because the V-ATPase is expressed so soon following amputation, we utilized an earlier marker that is normally expressed by 12 hpa: the K^+ channel KCNK1 (FIG. 14E,E′). In larvae in which V-ATPase activity was abrogated by concanamycin or a function-blocking anti-V-ATPase antibody, KCNK1 expression was absent (N=13, FIG. 14F,F′-G,G′). Thus, V-ATPase is upstream of some gene expression in the regeneration bud, including other ion transporters also specifically expressed during early stages of regeneration.
Larvae were fixed in MEMFA (Sive et al., 2000) and dehydrated in methanol. In situ hybridization was carried out according to standard protocols (Harland, 1991, Xenopus laevis: Practical uses in cell and molecular biology 36: 685-695). The ion transporter constructs used to generate probes for in situ hybridization (ISH) experiments were: Kcnk1 (TWIK-1, BC042262, Open Biosystems), V-ATPase 16 kDa subunit (BE025959, RZPD). Plasmids were used to generate anti-sense riboprobes by in vitro transcription. […] Expression indicated represents consistent consensus patterns obtained from analysis of at least 15 larvae in all experiments. […]

activated caspase-3 = assay: Activated caspase-3 localization (apoptosis) in regenerating tails; assay type: in vivo, Xenopus laevis; conditions: V-ATPase-inhibited larvae
Experimental: Further experiments were done in the Xenopus system based on the results of the pharmacological screen (see Example 6). […] The V-ATPase (Nishi, 2002, Nature Reviews Molecular Cell Biology 3: 94-103) generates strong pH and voltage gradients at the expense of ATP, when expressed in vesicular or cell plasma membranes.
Xenopus larvae were fixed overnight in MEMFA, heated for 2 hrs at 65° C. in 50% formamide (to inactivate endogenous alkaline phosphatases; this procedure was not done when using fluorescent secondary antibodies), permeabilized in PBTr+0.1% Triton X100 for 30 min, and processed for immunohistochemistry using alkaline phosphatase secondary antibody (Levin, 2004, Journal of Biochemical and Biophysical Methods 58: 85-96) until signal was optimal and background minimal (usually 12 hrs). […] Anti-KCNK1 (a generous gift of Dr. S. A. Goldstein and D. Bockenhauer) was used at 1:500. The 12-101 muscle marker (Gurdon et al., 1985, Cell 41: 913-22; Kintner and Brockes, 1984, Nature 308: 67-9) was used at 1:1 dilution; this monoclonal antibody developed by Jeremy P. Brockes was obtained from the Developmental Studies Hybridoma Bank developed under the auspices of the NICHD and maintained by The University of Iowa, Department of Biological Sciences, Iowa City, Iowa 52242.

## C/C=C/[C@H]1O[C@@](O)([C@@H](C)[C@H](O)[C@H](C)[C@H]2OC(=O)/C(OC)=C/C(C)=C/[C@@H](C)[C@@H](O)[C@@H](CC)[C@@H](O)[C@H](C)C/C(C)=C/C=C/[C@@H]2OC)C[C@@H](O)[C@@H]1C [concanamycin]
[1]
  left/right asymmetry in the proton fluxes: eliminated
  proton efflux on the right side: about half of its original value
[2]
  aberrant sidedness of Nodal expression, % of embryos: 24%
  aberrant sidedness of Shh expression, % of embryos: 67%
  expression of Shh and Nodal (sidedness): randomized
KCNK1
  KCNK1 expression in the regeneration bud: absent
Activated caspase-3
  degree of apoptosis vs control: no significant difference
